e = 2'-O-(2-methoxyethyl) (MOE); d = 2'-deoxy (DNA)
Experiments:
[1] = test system: U2OS cells (osteosarcoma); assay: U2OS cells treated with PMO, cisplatin followed by Go6976 (FIG. 5); type: cell-based; conditions: PMO 3 uM 2 h; for enhancement of sensitivity to cisplatin: Cis 5 uM 24 h
Method: FIG. 5 is a graph showing the results obtained with U2OS cells treated with PMO (3 uM, 2 h), Cis (5 uM, 24 h) followed by Go6976 (100 nM, 24 h).
(§1) In further studies, additional agents were tested in conjunction with p53 morpholinos. […] We also tested these agents on U2OS cells (osteosarcoma). Again a dramatic effect on cell cycle that is dependent on PMOs and Go is observed. PMOs give a 3-fold enhancement of drug sensitivity in the caspase 3 assay. We also assessed U2OS cells treated with PMOs (p53-A and p53-B) +/−cisplatin+/−Go6976.

[2] = test system: U2OS cells (osteosarcoma); assay: U2OS cells treated with PMO, Dox followed by Go6976: cell cycle and caspase 3 assay (FIG. 4); type: cell-based; conditions: PMO 3 uM 2 h, Dox 200 ng/ml 24 h, +/- Go6976 100 nM 24 h
Method: FIG. 4 is a graph showing the results obtained with U2OS cells treated with PMO (3 uM, 2 h), Dox (200 ng/ml, 24 h) followed by Go6976 (100 nM, 24 h).
as §1

clusterin = conditions: cited from earlier work

| Compound | enhancement of drug sensitivity in the caspase 3 assay [2] | enhancement of sensitivity to cisplatin [1] | further results |
| --- | --- | --- | --- |
| Cn1c2ccccc2c2c3c(c4c5ccccc5n(CCC#N)c4c21)CNC3=O [Go6976] | – | – | effect of Go6976 on the PMO enhancement of cisplatin sensitivity ([1]; Cis 5 uM 24 h followed by Go6976 100 nM 24 h): potentiates this enhancement |
| PMO A: p53 morpholino (PMO) with sequence corresponding to Seq Id 136 (NU(4)p53); (RX)8B CPP used in in vitro testing (CCATGGCAGTGACCCGGAAGGC; all phosphorodiamidate morpholino (PMO); (RX)8B cell-penetrating peptide conjugated, position not given here) | 3 fold | about 3 fold | – |
| PMO B: p53 morpholino (PMO) with sequence corresponding to Seq Id 140 (NU(7)p53); (RX)8B CPP used in in vitro testing (GCATCAAATCATCCATTGCTTG; all phosphorodiamidate morpholino (PMO); (RX)8B cell-penetrating peptide conjugated, position not given here) | 3 fold | about 3 fold | – |
| SEQ ID NO: 3: clusterin antisense oligo 5′-CAGCAGCAGAGTC TTCATCAT-3′, all phosphorothioate, terminal four nucleosides each end 2′-O-methyoxyethyl (CAGCAGCAGAGTCTTCATCAT; sugars from the 5' end e4 d13 e4, all phosphorothioate, methylation of C not given here) | – | – | sensitization of cancer cells to radiation and chemotherapeutic agents (clusterin; cancer cells including prostate cancer cells): modestly sensitize some cancer cells; suppressive activity on clusterin expression (clusterin): relatively poor suppressive activity; effect on induction of apoptosis (clusterin; some cancer cells, including those deficient in p21 (WAF-1) expression): can inhibit the induction of apoptosis in some cancer cells |

From patent US20150010502A1, “Compositions and Methods for Suppressing Gene Expression of p53 and Clusterin” (priority 2011, published 2015)
